Laboratory results: patent publication US7138361B2, “Herbicidal heterocycles” (E. I. du Pont de Nemours and Company, priority 2000, dated 2006)

What was measured:
Format in all cases: in vivo
kochia (Kochia scoparia) = experiment: Test C preemergence
In short: (§1)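 Pre- and postemergence treatments used a non-phytotoxic solvent/surfactant formulation; post-treated plants measured 2 to 18 cm. Greenhouse hold 12–14 d; % control estimated visually relative to controls.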

[1] = tested on: goosegrass (Eleusine indica); experiment: Test C preemergence
In short: as §1

[2] = tested on: johnsongrass (Sorghum halepense); experiment: Test C preemergence
In short: as §1

[3] = tested on: woolly cupgrass (Eriochloa villosa); experiment: Test C preemergence
In short: as §1

[4] = tested on: bermudagrass (Cynodon dactylon); experiment: Test C preemergence
In short: as §1

[5] = tested on: cocklebur (Xanthium strumarium); experiment: Test C preemergence
In short: as §1

Nightshade = experiment: Test C preemergence
[6] = tested on: Surinam grass (Brachiaria decumbens); experiment: Test C preemergence
In short: as §1

[7] = tested on: yellow nutsedge (Cyperus esculentus); experiment: Test C preemergence
In short: as §1

Sunflower [8] = experiment: Test C preemergence; conditions: Rate 62 g/ha; scale 0 to 100, 0 no effect, 100 complete control
[9] = tested on: pigweed (Amaranthus retroflexus); experiment: Test C preemergence
In short: as §1

[10] = tested on: morningglory (Ipomoea hederacea); experiment: Test C preemergence
In short: as §1

[11] = tested on: velvetleaf (Abutilon theophrasti); experiment: Test C preemergence
In short: as §1

corn (Zea mays) = experiment: Test C preemergence
In short: as §1

soybean (Glycine max) = experiment: Test C preemergence
In short: as §1

[12] = tested on: lambsquarters (Chenopodium album); experiment: Test C preemergence
In short: as §1

[13] = tested on: crabgrass (Digitaria sanguinalis); experiment: Test C preemergence
In short: as §1

[14] = tested on: giant foxtail (Setaria faberii); experiment: Test C preemergence
In short: as §1

[15] = tested on: smallflower flatsedge (Cyperus difformis); experiment: Test C flooded paddy test; conditions: for Flatsedge plant response rating: Flooded Paddy, scale 0 to 100, 0 no effect, 100 complete control; for Plant response rating, Flatsedge: flooded paddy test, scale 0 to 100 (0 no effect, 100 complete control)
In short: (§2)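 Each species was cultivated to 2 leaves in flooded paddy pots, then treated. After a greenhouse period of 12–14 days, the plants were scored visually relative to controls from 0 (no effect) to 100 (complete control).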

[16] = tested on: barnyardgrass (Echinochloa crus-galli); experiment: Test C flooded paddy test; conditions: for Barnyardgrass plant response rating: Flooded Paddy, scale 0 to 100, 0 no effect, 100 complete control; for Plant response rating, Barnyardgrass: flooded paddy test, scale 0 to 100 (0 no effect, 100 complete control)
In short: as §2

[17] = tested on: duck salad (Heteranthera limosa); experiment: Test C flooded paddy test; conditions: for Ducksalad plant response rating: Flooded Paddy, scale 0 to 100, 0 no effect, 100 complete control; for Plant response rating, Ducksalad: flooded paddy test, scale 0 to 100 (0 no effect, 100 complete control)
In short: as §2

Sunflower [18] = experiment: Test C preemergence; conditions: Rate 250 g/ha, visual evaluation after 12 to 14 days
[19] = Rate 62 g/ha, scale 0 to 100, 0 no effect, 100 complete control
[20] = preemergence, Rate 31 g/ha, scale 0 to 100
[21] = preemergence, Rate 250 g/ha, visual evaluation after 12 to 14 days
[22] = preemergence, Rate 125 g/ha, scale 0 to 100, 0 no effect, 100 complete control

## CC(C)(C)c1ccn(C2CCN(c3ccc(Cl)c(Cl)c3)C2=O)n1 (stereo not drawn) [Compound 34]
Kochia (Kochia scoparia); [19]
  Plant response rating, Kochia: 100
Kochia (Kochia scoparia); [20]
  Plant response rating, Kochia: 100
Kochia (Kochia scoparia); [21]
  Plant response rating (0 to 100), Kochia: 100
Kochia (Kochia scoparia); [22]
  Plant response rating, Kochia: 100
[1]; [19]
  Plant response rating, Goosegrass: 80
[1]; [20]
  Plant response rating, Goosegrass: 20
[1]; [21]
  Plant response rating (0 to 100), Goosegrass: 100
[1]; [22]
  Plant response rating, Goosegrass: 80
[2]; [19]
  Plant response rating, Johnsongrass: 0
[2]; [20]
  Plant response rating, Johnsongrass: 0
[2]; [21]
  Plant response rating (0 to 100), Johnsongrass: 0
[2]; [22]
  Plant response rating, Johnsongrass: 0
[3]; [19]
  Plant response rating, Cupgrass, Woolly: 20
[3]; [20]
  Plant response rating, Cupgrass, Woolly: 0
[3]; [21]
  Plant response rating (0 to 100), Cupgrass, Woolly: 80
[3]; [22]
  Plant response rating, Cupgrass, Woolly: 20
[4]; [19]
  Plant response rating, Bermudagrass: 80
[4]; [20]
  Plant response rating, Bermudagrass: 0
[4]; [21]
  Plant response rating (0 to 100 where 0 is no effect and 100 is complete control), Bermudagrass: 100
[4]; [22]
  Plant response rating, Bermudagrass: 90
[5]; [19]
  Plant response rating, Cocklebur: 0
[5]; [20]
  Plant response rating, Cocklebur: 0
[5]; [21]
  Plant response rating (0 to 100), Cocklebur: 0
[5]; [22]
  Plant response rating, Cocklebur: 0
Nightshade; Rate 31 g/ha, scale 0 to 100
  Plant response rating, Nightshade: 0
Nightshade; [19]
  Plant response rating, Nightshade: 0
Nightshade; Rate 125 g/ha, scale 0 to 100, 0 no effect, 100 complete control
  Plant response rating, Nightshade: 0
[6]; [19]
  Plant response rating, Surinam grass: 0
[6]; [20]
  Plant response rating, Surinam grass: 0
[6]; [21]
  Plant response rating (0 to 100), Surinam grass: 0
[6]; [22]
  Plant response rating, Surinam grass: 0
[7]; [19]
  Plant response rating, Nutsedge: 0
[7]; [20]
  Plant response rating, Nutsedge: 0
[7]; [21]
  Plant response rating (0 to 100), Nutsedge: 0
[7]; [22]
  Plant response rating, Nutsedge: 0
Sunflower [8]
  Plant response rating, Sunflower: 0
[9]; [19]
  Plant response rating, Pigweed: 100
[9]; [20]
  Plant response rating, Pigweed: 0
[9]; [21]
  Plant response rating (0 to 100), Pigweed: 40
[9]; [22]
  Plant response rating, Pigweed: 100
[10]; [19]
  Plant response rating, Morningglory: 0
[10]; [20]
  Plant response rating, Morningglory: 0
[10]; [21]
  Plant response rating (0 to 100), Morningglory: 0
[10]; [22]
  Plant response rating, Morningglory: 0
[11]; [19]
  Plant response rating, Velvetleaf: 0
[11]; [20]
  Plant response rating, Velvetleaf: 0
[11]; [21]
  Plant response rating (0 to 100), Velvetleaf: 0
[11]; [22]
  Plant response rating, Velvetleaf: 0
Corn (Zea mays); [19]
  Plant response rating, Corn: 0
Corn (Zea mays); [20]
  Plant response rating, Corn: 0
Corn (Zea mays); [21]
  Plant response rating (0 to 100), Corn: 0
Corn (Zea mays); [22]
  Plant response rating, Corn: 0
Soybean (Glycine max); [19]
  Plant response rating, Soybean: 0
Soybean (Glycine max); [20]
  Plant response rating, Soybean: 0
Soybean (Glycine max); [21]
  Plant response rating (0 to 100), Soybean: 0
Soybean (Glycine max); [22]
  Plant response rating, Soybean: 0
[12]; [19]
  Plant response rating, Lambsquarters: 90
[12]; [20]
  Plant response rating, Lambsquarters: 90
[12]; [21]
  Plant response rating (0 to 100), Lambsquarters: 100
[12]; [22]
  Plant response rating, Lambsquarters: 100
[13]; [19]
  Plant response rating, Crabgrass: 60
[13]; [20]
  Plant response rating, Crabgrass: 0
[13]; [21]
  Plant response rating (0 to 100), Crabgrass: 100
[13]; [22]
  Plant response rating, Crabgrass: 70
[14]; [19]
  Plant response rating, Foxtail, Giant: 30
[14]; [20]
  Plant response rating, Foxtail, Giant: 30
[14]; [21]
  Plant response rating (0 to 100), Foxtail, Giant: 50
[14]; [22]
  Plant response rating, Foxtail, Giant: 0
[15]; Rate 250 g/ha
  Flatsedge plant response rating: 90
[15]; Rate 500 g/ha
  Flatsedge plant response rating: 100
[15]; Rate 62 g/ha
  Plant response rating, Flatsedge: 70
[15]; Rate 125 g/ha
  Plant response rating, Flatsedge: 90
[16]; Rate 250 g/ha
  Barnyardgrass plant response rating: 80
[16]; Rate 500 g/ha
  Barnyardgrass plant response rating: 80
[16]; Rate 62 g/ha
  Plant response rating, Barnyardgrass: 0
[16]; Rate 125 g/ha
  Plant response rating, Barnyardgrass: 40
[17]; Rate 250 g/ha
  Ducksalad plant response rating: 70
[17]; Rate 500 g/ha
  Ducksalad plant response rating: 100
[17]; Rate 62 g/ha
  Plant response rating, Ducksalad: 20
[17]; Rate 125 g/ha
  Plant response rating, Ducksalad: 50
Sunflower [18]
  Plant response rating (0 to 100), Sunflower: 0
